Assay results taken from patent US7064122B2, “Pancreatic lipase inhibitor compounds, their synthesis and use” (OSI Pharmaceuticals, Inc., priority 2001, dated 2006).

Assays:
[1] = molecular target: T1, type VI-S porcine pancreatic lipase (Sus scrofa, UniProt P00591); assay: Pancreatic lipase assay (pH-stat titration, triolein substrate); assay type: biochemical; parameters: Ymax: unit not given here; settings: for inhibition at 0.7 µM: 12.5 min; for Ymax / k: 7.0 nM lipase, 700 nM inhibitor, pH 8.0; for Ymax: Ymax of the fit Y=Ymax*(1-exp(-k*X)); for k: k fitted for the 12.5 min after inhibitor addition, Y=Ymax*(1-exp(-k*X))
T1 construct: purchased Sigma type VI-S (catalogue number not given)
T1 sequence (P00591 1-450): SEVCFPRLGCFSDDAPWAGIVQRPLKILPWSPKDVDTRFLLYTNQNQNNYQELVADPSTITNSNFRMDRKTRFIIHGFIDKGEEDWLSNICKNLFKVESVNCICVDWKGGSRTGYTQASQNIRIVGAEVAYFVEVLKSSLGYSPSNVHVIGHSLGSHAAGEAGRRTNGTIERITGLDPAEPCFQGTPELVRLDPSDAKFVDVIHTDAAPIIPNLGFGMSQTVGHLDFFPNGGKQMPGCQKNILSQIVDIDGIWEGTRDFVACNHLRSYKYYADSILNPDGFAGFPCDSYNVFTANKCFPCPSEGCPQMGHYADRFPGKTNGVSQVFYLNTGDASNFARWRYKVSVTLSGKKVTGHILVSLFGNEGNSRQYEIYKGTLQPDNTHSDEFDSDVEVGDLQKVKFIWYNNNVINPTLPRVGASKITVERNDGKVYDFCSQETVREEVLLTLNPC
Protocol: The use of a pancreatic lipase assay has been described in the literature (Hadvary, P. et al. Biochem. J. (1988) 256: 357-361; Hadvary, P. et al. Biochem. J. (1991) 266:2021-2027). Pancreatic lipase activity was measured using a 718 Stat Titrino (Brinkmann) programmed to maintain a pH of 8.0 using 0.1 N NaOH. The substrate mixture (pH 8) contained 1 mM taurochenodeoxycholate (Sigma), 9 mM taurodeoxycholate (Sigma), 0.1 mM cholesterol (Sigma), 1 mM phosphatidylcholine (Sigma), 1.5% BSA, 2 mM Tris base, 100 mM NaCl, 10 mM CaCl2, and 3% triolein (Sigma). The mixture (5 mL) was emulsified via sonication at room temperature, and added to the titration vessel with rapid stirring. The Stat Titrino was turned on and lipase (7.0 nM type VI-S porcine pancreatic lipase (Sigma) dissolved in PBS) was added to the vessel. After 10 min, inhibitor (700 nM dissolved in 100% DMSO) was added and the reaction continued for an additional 12.5 min. The k values were determined for the 12.5 min after the addition of the inhibitor using a one phase exponential association equation, Y=Ymax*(1−exp(−k*X)), k values for lipase alone were 0.0004±0.0001 sec. The k values for compounds disclosed herein are >0.0004±0.0001 sec.

SMILES | inhibition at 0.7 µM [1] | melting point | Ymax [1] | k [1]
CCCCCCCCNc1nc2sc(C(=O)NCCCc3ccccc3)c(C)c2c(=O)o1 [Entry 80, 5-Methyl-2-octylamino-4-oxo-4H-thieno(2,3-d)(1,3)oxazine-6-carboxylic acid (3-phenyl-propyl)-amide] | 66.3% | 139 to 141 °C | – | –
CCCCCCCCNc1nc2sc(C(=O)OC(CCCC)CCCC)c(C)c2c(=O)o1 [Entry 39, 5-Methyl-2-octylamino-4-oxo-4H-thieno[2,3-d][1,3]oxazine-6-carboxylic acid 1-butyl-pentyl ester] | – | 90 to 92 °C | 0.156 | 1.253 10-3.s-1
CCCCCCCCCCCCNc1nc2sc(C(=O)NCCCCCCCC)c(C)c2c(=O)o1 [Entry 24, 2-Dodecylamino-5-methyl-4-oxo-4H-thieno[2,3-d][1,3]oxazine-6-carboxylic acid octylamide] | – | 137.1 to 138 °C | – | 1.849 10-3.s-1
CCCCCCCCNc1nc2sc(C(=O)N3CCc4cc(OC)c(OC)cc4C3)c(C)c2c(=O)o1 [Entry 65, 6-(6,7-Dimethoxy-3,4-dihydro-1H-isoquinoline-2-carbonyl)-5-methyl-2-octylamino-thieno(2,3-d)(1,3)oxazin-4-one] | – | 77 to 80 °C | 0.339 | 0.284 10-3.s-1
CCCCCCCCOC(=O)c1sc2nc(OC(C)C)oc(=O)c2c1C [Entry 12, 2-iso-Propoxy-5-methyl-4-oxo-4H-thieno[2,3-d][1,3]oxazine-6-carboxylic acid octyl ester] | – | 47.5 to 48 °C | – | 0.438 10-3.s-1
CCCCCCCCCCCCCCNc1nc2sc(C(=O)NCCCCCCCC)c(C)c2c(=O)o1 [Entry 25, 5-Methyl-4-oxo-2-tetradecylamino-4H-thieno[2,3-d][1,3]oxazine-6-carboxylic acid octylamide] | – | 145 to 145.8 °C | – | 1.629 10-3.s-1
CCCCCCCCNc1nc2sc(C(=O)NCc3ccc4c(c3)OCO4)c(C)c2c(=O)o1 [Entry 69, 5-Methyl-2-octylamino-4-oxo-4H-thieno(2,3-d)(1,3)oxazine-6-carboxylic acid (2-benzo(1,3)dioxol-5-yl-methyl)-amide] | – | 149 to 152 °C | 0.112 | 1.137 10-3.s-1
CCCCCCCCOC(=O)c1sc2nc(OCCCCCCCC)oc(=O)c2c1C [Entry 9, 5-Methyl-2-octyloxy-4-oxo-4H-thieno[2,3-d][1,3]oxazine-6-carboxylic acid octyl ester] | – | 58.5 to 60.2 °C | 0.286 | 0.924 10-3.s-1
CCCCCCCCOc1nc2sc(CCCCCCCC)c(C)c2c(=O)o1 [Entry 87] | 27.9% | 36 °C | – | –
CCCCCCCCNc1nc2sc(C(=O)OCc3ccccc3)c(C)c2c(=O)o1 [Entry 16, 5-Methyl-2-octylamino-4-oxo-4H-thieno[2,3-d][1,3]oxazine-6-carboxylic acid benzyl ester] | – | 153.5 to 154 °C | – | 1.711 10-3.s-1
CCCCCCCCCCCCCCCCNc1nc2sc(C(=O)NCCCCCCCC)c(C)c2c(=O)o1 [Entry 26, 2-Hexadecylamino-5-methyl-4-oxo-4H-thieno[2,3-d][1,3]oxazine-6-carboxylic acid octylamide] | – | 146.3 to 147 °C | – | 1.709 10-3.s-1
CCCCCCCCNc1nc2sc(CCCCCCC)cc2c(=O)o1 [Entry 61, 6-Heptyl-2-octylamino-thieno[2,3-d][1,3]oxazin-4-one] | – | 89 to 91 °C | 0.460 | 0.247 10-3.s-1
CCCCCCCCNc1nc2sc(C(=O)NCCCCc3ccccc3)c(C)c2c(=O)o1 [Entry 79, 5-Methyl-2-octylamino-4-oxo-4H-thieno(2,3-d)(1,3)oxazine-6-carboxylic acid (4-phenyl-butyl)-amide] | 69.5% | 153 to 154 °C | – | –
CCCCCCCCNc1nc2sc(C(=O)N(CCCCCC)CCCCCC)c(C)c2c(=O)o1 [Entry 42, 5-Methyl-2-octylamino-4-oxo-4H-thieno[2,3-d][1,3]oxazine-6-carboxylic acid dihexylamide] | – | 42 to 45 °C | 0.124 | 1.123 10-3.s-1
CCCCCCN(C)c1nc2sc(C(=O)OCc3ccccc3)c(C)c2c(=O)o1 [Entry 57, 2-(Hexyl-methyl-amino)-5-methyl-4-oxo-4H-thieno[2,3-d][1,3]oxazine-6-carboxylic acid benzyl ester] | – | 86 to 88 °C | – | 0.070 10-3.s-1
CCCCCCCCNc1nc2sc(C(=O)NC)c(C)c2c(=O)o1 [Entry 31, 5-Methyl-2-octylamino-4-oxo-4H-thieno[2,3-d][1,3]oxazine-6-carboxylic acid methylamide] | – | 152.5 to 158 °C | – | 0.777 10-3.s-1
CCCCCCCCNc1nc2sc(C(=O)NCc3ccc(OC)c(OC)c3)c(C)c2c(=O)o1 [Entry 66, 5-Methyl-2-octylamino-4-oxo-4H-thieno(2,3-d)(1,3)oxazine-6-carboxylic acid (2-(3,4-dimethoxy-phenyl)-methyl)-amide] | – | 159 to 163 °C | 0.118 | 1.027 10-3.s-1
CCCCCCCCOc1nc2sc(CCCCCCC)c(C)c2c(=O)o1 [Entry 74, 6-Heptyl-5-methyl-2-octyloxy-thieno[2,3-d][1,3]oxazin-4-one] | – | 29 to 31 °C | 0.982 | 0.422 10-3.s-1
CCCCCCCCNc1nc2sc(Cc3ccccc3)cc2c(=O)o1 [Entry 62, 6-Benzyl-2-octylamino-thieno[2,3-d][1,3]oxazin-4-one] | – | 123 to 124 °C | 1.901 | 0.103 10-3.s-1
CCCCC(CCCC)Nc1nc2sc(C(=O)OCc3ccccc3)c(C)c2c(=O)o1 [Entry 59, 2-(1-Butyl-pentylamino)-5-methyl-4-oxo-4H-thieno[2,3-d][1,3]oxazine-6-carboxylic acid benzyl ester] | – | 136 to 138 °C | – | 0.222 10-3.s-1
CCCCCCCCNC(=O)Nc1sc(C(=O)N2CCN(Cc3ccccc3)CC2)c(C)c1C(=O)O [Entry 37, 5-(4-Benzyl-piperazine-1-carbonyl)-4-methyl-2-(3-octyl-ureido)-thiophene-3-carboxylic acid] | – | 193.5 to 195 °C (dec.) | 0.211 | 0.574 10-3.s-1
CCCCCCCCNC(=O)c1sc2nc(NCCCCCCCC)oc(=O)c2c1C [Entry 18, 5-Methyl-2-octylamino-4-oxo-4H-thieno[2,3-d][1,3]oxazine-6-carboxylic acid octylamide] | 18% | 152 to 152.8 °C | – | 1.036 10-3.s-1
CCCCCCCCNc1nc2sc(CCCC)cc2c(=O)o1 [Entry 63, 6-Butyl-2-octylamino-thieno[2,3-d][1,3]oxazin-4-one] | – | 93 to 94 °C | 10.091 | 0.074 10-3.s-1
CCCCCCCCNc1nc2sc(C(=O)NCc3cccnc3)c(C)c2c(=O)o1 [Entry 35, 5-Methyl-2-octylamino-4-oxo-4H-thieno[2,3-d][1,3]oxazine-6-carboxylic acid (pyridin-3-ylmethyl)amide] | – | 148 to 150 °C | – | 1.544 10-3.s-1
